Reference: publication PMC8735877, “Flavonoids as tyrosinase inhibitors in in silico and in vitro models: basic framework of SAR using a statistical modelling approach” (Journal of Enzyme Inhibition and Medicinal Chemistry, 2021)
Where two headings read alike, the source gives them in different places.

Experiments:
mushroom tyrosinase [1] = target: T1, mushroom tyrosinase (Agaricus bisporus, UniProt C7FF04); test: Tyrosinase inhibition assay (L-DOPA oxidation, absorbance at 492 nm); format: biochemical;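 further: enzyme in phosphate buffer, compounds preincubated with enzyme, inhibition computed against blank absorbance, IC50 fitted by nonlinear regression, runs in triplicate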
mushroom tyrosinase [2] = target: T1, mushroom tyrosinase; test: Tyrosinase inhibition kinetic analysis (Lineweaver-Burk and Dixon plots); format: biochemical; details: for Type of inhibition: Lineweaver-Burk plots
Protocol: The enzyme reaction kinetics of these compounds were measured by constructing Lineweaver-Burk plots of inverse velocities (1/V), contrary to the inverse of substrate concentration (1/S)[22]^,[23]. Preincubations and measurement times were performed using the same protocol as described above. The enzyme concentration (250 U/mL) was kept constant in the presence of substrate solutions (L-DOPA) between 0.25 and 2 mM in all kinetic studies. The inhibitor concentrations for all test compounds were 0, 25, and 50 µM. The inhibitory types and inhibitory constant (Ki) values were described by 1/V versus inhibitor concentration plots (Dixon plot).

[3] = substrate L-DOPA, PBS pH 6.8, 25 °C, highest tested concentration 500 µM, mean ± SD, n = 3, read-out: IC50
[4] = Dixon plot, L-DOPA 0.25-2 mM, inhibitor 0, 25, 50 µM, ± SD, triplicate, read-out: Ki
[5] = L-DOPA 0.25-2 mM, inhibitor 0, 25, 50 µM

T1 sequence (C7FF04 1-392): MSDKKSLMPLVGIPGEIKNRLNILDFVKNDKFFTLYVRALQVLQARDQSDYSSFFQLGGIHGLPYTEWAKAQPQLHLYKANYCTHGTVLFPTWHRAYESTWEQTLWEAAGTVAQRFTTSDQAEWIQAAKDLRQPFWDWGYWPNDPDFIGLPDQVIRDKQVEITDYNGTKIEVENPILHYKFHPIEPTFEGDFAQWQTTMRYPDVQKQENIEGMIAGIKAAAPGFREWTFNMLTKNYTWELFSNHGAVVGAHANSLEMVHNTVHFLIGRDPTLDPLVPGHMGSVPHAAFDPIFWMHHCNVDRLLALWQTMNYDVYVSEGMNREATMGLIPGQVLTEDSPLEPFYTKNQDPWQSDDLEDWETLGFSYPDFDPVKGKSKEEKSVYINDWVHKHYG

Row | IC50 (mushroom tyrosinase [1]; [3]) [µM] | Compound | IC50 (mushroom tyrosinase [1]) [µM] | other results
1 | – | O=c1cc(-c2ccccc2)oc2cc(O)cc(O)c12 [Compound 11, chrysin] | 129.4 ± 1.13 | –
2 | – | COc1cccc(OC)c1-c1cc(=O)c2c(O)cccc2o1 [Compound 9, 5-hydroxy-2′,6′-dimethoxyflavone] | 127 ± 1.4 | –
3 | – | O=c1cc(-c2ccc(O)cc2)oc2cc(O)cc(O)c12 [Compound 12, apigenin] | 160.5 ± 1.44 | –
4 | 290.5 ± 1.19 | COc1c(O)cc(O)c2c(=O)c(O)c(-c3ccc(O)cc3)oc12 [Compound 27, 8-methoxykaempferol] | – | –
5 | 148 ± 1.57 | CC1OC(OCC2OC(Oc3c(-c4ccc(O)c(O)c4)oc4cc(OC5OC(CO)C(O)C(O)C5O)cc(O)c4c3=O)C(O)C(O)C2O)C(O)C(O)C1O (stereo not drawn) [Compound 38, quercetin 3-O-rutinoside-7-O-glucoside] | – | –
6 | – | COc1ccc(C2CC(=O)c3c(O)cc(OC4OC(COC5OC(C)C(O)C(O)C5O)C(O)C(O)C4O)cc3O2)cc1O (stereo not drawn) [Compound 6, hesperetin 7-O-rutinoside] | 131 ± 1.4 | –
7 | – | COc1ccc(-c2cc(=O)c3c(O)cc(O)cc3o2)cc1 [Compound 16, acacetin] | 207.9 ± 1.35 | –
8 | – | O=c1cc(-c2ccc(O)c(O)c2)oc2cc(OC3OC(CO)C(O)C(O)C3O)cc(O)c12 (stereo not drawn) [Compound 18, luteolin 7-O-glucoside] | 415 ± 2.38 | –
9 | – | O=C(O)C1OC(Oc2c(-c3ccc(O)c(O)c3)oc3cc(O)cc(O)c3c2=O)C(O)C(O)C1O (stereo not drawn) [Compound 36, quercetin 3-O-glucuronide] | 220.1 ± 1.14 | –
10 | > 500 | COc1ccc(-c2cc(=O)c3c(O)cc(O)c(C4OC[C@@H](O)[C@H](O)[C@H]4OC4O[C@H](CO)[C@@H](O)[C@H](O)[C@H]4O)c3o2)cc1O (stereo partly drawn) [Compound 22, 5,7,3′-trihydroxy-4′-methoxyflavone-8-C-xylopyranoside-2"-O-glucoside] | – | –
11 | – | O=c1cc(-c2ccccc2)oc2cccc(O)c12 [Compound 7, 5-hydroxyflavone] | 120 ± 1.48 | –
12 | – | C[C@@H]1O[C@@H](OC[C@H]2O[C@@H](Oc3c(-c4ccc(O)c(O)c4)oc4cc(O)cc(O)c4c3=O)[C@H](O)[C@@H](O)[C@@H]2O)[C@H](O)[C@H](O)[C@H]1O [Compound 37, quercetin 3-O-rutinoside] | 141.7 ± 1.3 | –
13 | – | COc1ccc(C2CC(=O)c3c(O)cc(OC)cc3O2)cc1 (stereo not drawn) [Compound 2, 7,4′-dimethoxynaringenin] | > 500 | –
14 | – | O=c1c(O[C@@H]2O[C@H](CO)[C@@H](O)[C@H](O)[C@H]2O)c(-c2ccc(O)cc2)oc2cc(O)cc(O)c12 [Compound 29, kaempferol 3-O-glucoside] | 481.5 ± 1.73 | –
15 | – | O=c1cc(-c2ccc(O)c(O)c2)oc2cc(O)c([C@@H]3O[C@H](CO)[C@@H](O)[C@H](O)[C@H]3O)c(O)c12 [Compound 20, luteolin-6-C-glucoside] | 133 ± 2.32 | –
16 | – | O=c1c(O)c(-c2cc(O)c(O)c(O)c2)oc2cc(O)cc(O)c12 [Compound 42, myricetin] | 100 ± 1.86 | –

Row | IC50 (mushroom tyrosinase [1]; [3]) [µM] | Compound | IC50 (mushroom tyrosinase [1]) [µM] | other results
17 | 58.9 ± 0.78 | O=c1cc(-c2ccc(O)c(O)c2)oc2cc(O)cc(O)c12 [Compound 17, luteolin] | – | Ki (mushroom tyrosinase [2]; [4]): 11.3 ± 0.77 µM; Type of inhibition (mushroom tyrosinase [2]; [5]): non-competitive
18 | 231.7 ± 1.17 | COc1ccc(-c2oc3cc(O)cc(O)c3c(=O)c2OC)cc1 [Compound 33, ermanin] | – | –
19 | – | O=C(/C=C/c1ccc(O)cc1)OC[C@H]1O[C@@H](Oc2c(-c3ccc(O)cc3)oc3cc(O)cc(O)c3c2=O)[C@H](O)[C@@H](O)[C@@H]1O [Compound 32, kaempferol 3-O-(6″-O-trans-p-coumaroyl)-glucoside] | 78.5 ± 0.84 | Ki (mushroom tyrosinase [2]): 9.83 ± 0.57 µM; Type of inhibition (mushroom tyrosinase [2]; [5]): competitive
20 | 270 ± 1.23 | O=C(O)C1OC(Oc2c(-c3ccc(O)cc3)oc3cc(O)cc(O)c3c2=O)C(O)C(O)C1O (stereo not drawn) [Compound 30, kaempferol 3-O-glucuronide] | – | –
21 | – | O=c1c(O)c(-c2cc(O)c(O)c(O)c2)oc2cc(O)ccc12 [Compound 41, robinetin] | 63.1 ± 0.85 | Ki (mushroom tyrosinase [2]): 27.4 ± 0.62 µM; Type of inhibition (mushroom tyrosinase [2]; [5]): non-competitive
22 | – | O=c1c(-c2ccc(O)cc2)coc2cc(O)ccc12 [Compound 43, daidzein] | > 500 | –
23 | – | O=c1cc(-c2ccc(O)cc2)oc2cc(OC3OC(CO)C(O)C(O)C3O)cc(O)c12 (stereo not drawn) [Compound 13, apigenin 7-O-glucoside] | 323.2 ± 1.48 | –
24 | – | O=c1c(OC2OC(CO)C(O)C(O)C2O)c(-c2ccc(O)cc2)oc2cc(O)cc(O)c12 (stereo not drawn) [Compound 31, kaempferol 3-O-galactoside] | 186.9 ± 1.09 | –
25 | – | O=c1c(-c2ccc(O)cc2)coc2cc(O)cc(O)c12 [Compound 44, genistein] | > 500 | –
26 | – | COc1ccc([C@@H]2CC(=O)c3c(O)cc(O)cc3O2)cc1O [Compound 5, hesperetin] | 237 ± 2.63 | –
27 | > 500 | COc1cc(O)c2c(=O)c(OC)c(-c3ccc(O)cc3)oc2c1 [Compound 28, kumatakenin] | – | –
28 | – | COc1ccccc1-c1cc(=O)c2c(O)cccc2o1 [Compound 8, 5-hydroxy-2′-methoxyflavone] | 122.1 ± 1.19 | –
29 | – | O=c1cc(-c2ccc(O)cc2)oc2c([C@@H]3O[C@H](CO)[C@@H](O)[C@H](O)[C@H]3O)c(O)cc(O)c12 [Compound 14, apigenin 8-C-glucoside] | 133 ± 1.83 | –
30 | 150 ± 1.84 | COc1ccc(-c2oc3c(CC=C(C)C)c(O[C@@H]4O[C@H](CO)[C@@H](O)[C@H](O)[C@H]4O)cc(O)c3c(=O)c2O[C@@H]2O[C@@H](C)[C@H](O)[C@@H](O)[C@H]2O)cc1 [Compound 34, icariin] | – | –
31 | – | O=c1c(O)c(-c2ccc(O)c(O)c2)oc2cc(O)cc(O)c12 [Compound 35, quercetin] | – | Type of inhibition (mushroom tyrosinase [2]; [5]): competitive

Row | Compound | IC50 (mushroom tyrosinase [1]; [3]) [µM] | IC50 (mushroom tyrosinase [1]) [µM] | other results
32 | COc1cc(-c2cc(=O)c3c(O)cc(O)c(C4OC[C@@H](O)[C@H](O)[C@H]4OC4O[C@H](CO)[C@@H](OC(C)=O)[C@H](O)[C@H]4O)c3o2)ccc1OC(C)=O (stereo partly drawn) [Compound 25, 5,7-dihydroxy-3′-methoxy-4′-acetoxyflavone-8-C-xylopyranoside-2"-O-(4′"-acetoxy)-glucoside] | > 500 | – | –
33 | O=c1c(O)c(-c2ccc(O)cc2)oc2cc(O)cc(O)c12 [Compound 26, kaempferol] | 65.1 ± 1.09 | – | Ki (mushroom tyrosinase [2]; [4]): 40.2 ± 0.46 µM; Type of inhibition (mushroom tyrosinase [2]; [5]): competitive
34 | O=C1CC(c2ccc(O)c(O)c2)Oc2c1ccc(O)c2O (stereo not drawn) [Compound 4, isookanin] | 58.43 ± 0.38 | – | Ki (mushroom tyrosinase [2]; [4]): 18.6 ± 0.53 µM; Type of inhibition (mushroom tyrosinase [2]; [5]): non-competitive
35 | CC(=O)Oc1ccc(-c2cc(=O)c3c(O)cc(O)c(C4OC[C@@H](O)[C@H](O)[C@H]4OC4O[C@H](CO)[C@@H](O)[C@H](O)[C@H]4O)c3o2)cc1O (stereo partly drawn) [Compound 23, 5,7,3′-trihydroxy-4′-acetoxyflavone-8-C-xylopyranoside-2"-O-glucoside] | > 500 | – | –
